Experimental data published in patent US4355024A, “Method and feed for stimulating the growth of animals” (priority 1979, dated 1982).
Values joined by “and” are separate entries in the source; they are usually repeats but may differ in a detail not shown here. Identical values can stand only once. Peptide text beside a SMILES is read from it.

Assay: Growth stimulation in rats fed chow containing the additive (body weight over 15 days)
Assay type: in vivo, Wistar strain rats
Conditions: 0.25% wt/wt in feed; for Mean Body Weight, experimental animals: 10 male Wistar rats; for Body Weight of Animals (individual experimental animals): male Wistar rats
Description: Two groups of 10 Wistar strain rats each, all males to avoid estrus cyclical changes in the 15-day experimental period, were kept in two separate stock cages in an animal room maintained at 25° C. with an automatic 12-hour light-12-hour-dark cycle. Dry standard laboratory chow pellets were made up into a wet mash by adding a 1:1 mixture of water (wt/wt), which then was compressed by hand into balls weighing approximately 20 grams each. To each 20 g ball made for the experimental group, 50 mg of the methyl ester of L-aspartyl-L-phenylalanine was added, which represents a 0.25% wt/wt admixture. More than adequate food was made freely available to the animals at all times and drinking water was made available ad libitum. All individual rats were numbered by a colored stripe system marked on the tail. The animals were weighed on a balance to an accuracy of 1 gram at the start of the experiment (3 days after arrival in the cages to allow them to adjust to their new environment). They were then weighed again after 2, 4, 6, 8, 10, 12 and 14 days from the start of the new diet (i.e., days 3, 5, 7, 9, 11, 13 and 15 of the experiment). The rates of growth of the control and experimental animals is summarized in tabular form below: […]

[1] = Day 1 (start of diet, baseline)

**Q.** With COC(=O)[C@H](Cc1ccccc1)NC(=O)[C@@H](N)CC(=O)O [methyl ester of L-aspartyl-L-phenylalanine] (H-Asp-Phe-OMe) as the compound, how does the “Mean Body Weight, experimental animals” value [1] read?
**A.** 102.6 grams

**Q.** What about the “Mean Body Weight, experimental animals” value (Day 3) of the same compound?
**A.** 117.8 grams

**Q.** What about the “Mean Body Weight, experimental animals” value (Day 5) of the same compound?
**A.** 133.4 grams

**Q.** What about the “Mean Body Weight, experimental animals” value (Day 7) of the same compound?
**A.** 149.8 grams

**Q.** What about the “Mean Body Weight, experimental animals” value (Day 9) of the same compound?
**A.** 166.8 grams

**Q.** And the “Mean Body Weight, experimental animals” value (Day 11)?
**A.** 183.1 grams

**Q.** And the “Mean Body Weight, experimental animals” value (Day 13)?
**A.** 199.9 grams

**Q.** And the “Mean Body Weight, experimental animals” value (Day 15)?
**A.** 215.9 grams

**Q.** And the “Body Weight of Animals (individual experimental animals)” value (from here on “Body Weight of Animals”) [1]?
**A.** 94 grams and 105 grams and 96 grams and 110 grams and 102 grams and 98 grams and 104 grams and 95 grams and 114 grams and 108 grams

**Q.** And the “Body Weight of Animals” value (Day 3)?
**A.** 112 grams and 119 grams and 110 grams and 128 grams and 120 grams and 109 grams and 129 grams

**Q.** And the “Body Weight of Animals” value (Day 5)?
**A.** 130 grams and 135 grams and 126 grams and 145 grams and 134 grams and 127 grams and 124 grams

**Q.** What about the “Body Weight of Animals” value (Day 7) of the same compound?
**A.** 148 grams and 153 grams and 143 grams and 161 grams and 150 grams and 149 grams and 140 grams and 162 grams

**Q.** What about the “Body Weight of Animals” value (Day 9) of the same compound?
**A.** 169 grams and 160 grams and 161 grams and 178 grams and 166 grams and 158 grams and 165 grams and 155 grams and 180 grams

**Q.** And the “Body Weight of Animals” value (Day 11)?
**A.** 184 grams and 188 grams and 180 grams and 193 grams and 183 grams and 172 grams and 181 grams and 169 grams and 197 grams

**Q.** What about the “Body Weight of Animals” value (Day 13) of the same compound?
**A.** 203 grams and 204 grams and 195 grams and 209 grams and 202 grams and 186 grams and 200 grams and 184 grams and 213 grams

**Q.** What about the “Body Weight of Animals” value (Day 15) of the same compound?
**A.** 220 grams and 223 grams and 211 grams and 226 grams and 217 grams and 201 grams and 215 grams and 198 grams and 227 grams and 221 grams

**Q.** What about the “mean body weight of the experimental group higher than the mean body weight of the control group” value (rats, after 2 weeks) of the same compound?
**A.** about 34%

**Q.** And the “increase in body weight versus control (in words)” value (rats, beginning with the seventh day of the experiment)?
**A.** significant increases in body weight
